Source: patent US20150051191A1, “TREATMENT OF ALCOHOLISM USING IBUDILAST” (MEDICINOVA, INC., priority 2013, published 2015)

Key:
[1] = in vivo; cited from earlier work
C57BL/6J mice = test: mouse model of ethanol dependence, chronic intermittent ethanol (CIE) exposure; format: in vivo; conditions: for ethanol intake of alcohol dependent mice compared with control group counterparts / reduction of ethanol intake, alcohol dependent versus control mice: Test Cycle 9; for ethanol consumption relative to vehicle: Test Cycle 8
Method: Briefly, mice were divided into test (ethanol dependent) and control (non-ethanol dependent) groups. Mice in the former group were exposed to chronic intermittent ethanol (CIE) vapor (16 hr/day×4 days), and then forced to abstain from alcohol for 72 hours. Mice were then permitted access to ethanol for 2 h/day for a 5-day test period. This pattern of weekly CIE exposures followed by 5-day test periods was repeated for 9 cycles. Mice in the control group were treated in the same manner, except these animals were exposed to air rather than ethanol vapors. Mice from both groups were further divided into four sub-groups with animals receiving 0 mg/Kg, 3 mg/Kg, 6 mg/Kg or 12 mg/Kg dose of ibudilast. In a separate study, adult male C57BL/6J mice were used to evaluate ibudilast as a therapeutic for the treatment of alcohol dependence. Two groups of mice were used for the study. Mice in the first group were trained to drink ethanol using a 2 h/day free-choice (15% v/v ethanol) drinking procedure (ethanol dependent (EtOH) mice), while mice in the second group were provided water and served a control (ethanol nondependent (CTL)) mice. Both the ethanol dependent and ethanol non-dependent groups had equal number of mice (N=37-38/group). Mice in the alcohol dependent group were then exposed to chronic intermittent ethanol (CIE) vapors for 16 hr/day over four days. After a 72 hours forced abstinence period, the ethanol dependent mice were again permitted access to ethanol for 2 hours each day over a 5 consecutive test days. This pattern of chronic intermittent ethanol vapor exposure for four consecutive days followed by forced abstinence and a five day ethanol access test period was repeated for 9 cycles. […] Both control and ethanol dependent mice received subcutaneous (s.c.) injections of the vehicle at 9 hours and 1 hour prior to the start of daily drinking sessions during Test Cycles 4, 5 and 6 to acclimate the animals to handling and administration of injections. At the end of test cycle 6, mice in the ethanol dependent group and the control group were separated into four sub-groups with animals receiving one of four doses of ibudilast—0 mg/Kg, 3 mg/Kg, 6 mg/Kg or 12 mg/Kg during Test Cycles 7 and 8. Each sub-group contained 9-10 mice (N=9-10/group). The dose of ibudilast was increased during Test Cycle 9 with ethanol dependent and control mice receiving one of the following four doses of ibudilast—0 mg/Kg, 6 mg/Kg, 12 mg/Kg, or 18 mg/Kg. Thus, mice previously receiving a dose of 3 mg were administered ibudilast at a dose of 18 mg/Kg during Test Cycle 9.

[2] = system: high-alcohol-drinking (HAD1) rats; test: voluntary ethanol consumption in high-alcohol-drinking (HAD1) rats; format: in vivo, rat
Method: (§1) The ability of ibudilast (MN-166) to decrease voluntary ethanol consumption, under blind testing conditions, in selectively-bred alcohol-preferring (P) and high-alcohol-drinking (HAD1) rats and in a mouse model of ethanol dependence was examined.
(§2) To perform the study, adult male P and HAD1 rats were randomly assigned to receive one of the following four doses of ibudilast—0 mg/Kg, 3 mg/Kg, 6 mg/Kg, or 9 mg/Kg with eight rats assigned to each dose. Each dosing group was balanced to average a 2 h/day ethanol (15% v/v) intake. Water was concurrently available to the rats and Mazola corn oil was used as the vehicle.
(§3) The study was divided into four test phases. In the maintenance test phase rats in the treatment group were injected ibudilast subcutaneously (2 mL/kg s.c.), using standard solutions that deliver 3 mg/Kg, 6 mg/Kg or 9 mg/Kg of ibudilast, 60 min before each ethanol test session and the same dose of ibudilast was administered subcutaneously to the rats 8 hours later. Rats in the control group, however, are administered 2 mL/Kg Mazola corn oil subcutaneously. This protocol was carried out for 4 consecutive days. Following the maintenance test phase, is a two week no drug recovery phase during which rats are permitted access to ethanol and the amount of ethanol consumed by the rats was measured.
(§4) The recovery phase is followed by a two week forced ethanol abstinence phase. Following forced abstinence, the effects of ibudilast on ethanol drinking were examined by re-introducing ethanol to rats for a period of 5 consecutive days (i.e., the Relapse Test phase). Each animal received the same dose of ibudilast during maintenance and relapse test phases.

[3] = system: alcohol-preferring (P) rats; test: voluntary ethanol consumption in alcohol-preferring (P) rats; format: in vivo, rat; conditions: for ethanol drinking relative to controls: Relapse Test phase, p<0.05
Method: as §1, §2, §3, §4

[4] = 4-day maintenance test-phase, each dose (3, 6, 9 mg/Kg), p<=0.001
[5] = 5-day Relapse Test phase after two week forced abstinence
[6] = especially at the 9 mg/Kg dose, effect diminished over the 5-day test phase
[7] = maintenance test phase, 4 days, ibudilast s.c. 60 min before session and 8 hours later, 2 h/day ethanol 15% v/v
[8] = relapse test phase, data not shown

Question: Which “selective reduction of ethanol drinking” value [1] does the source give for CC[C@@H](C(N)=O)N1CCCC1=O [levatiracetam] here?
Answer: Its value is “do not selectively reduce ethanol drinking”.

Question: With CC(C)C(=O)c1c(C(C)C)nn2ccccc12 [ibudilast, Ibudilast] as the compound, how does the “ethanol intake of alcohol dependent mice compared with control group counterparts” value (C57BL/6J mice; 6 mg ibudilast, p<0.05) read?
Answer: The value was “consumed significantly more ethanol”.

Question: What about the “ethanol intake of alcohol dependent mice compared with control group counterparts” value (C57BL/6J mice; 12 mg/Kg) of the same compound?
Answer: Its value is “no significant difference in ethanol intake”.

Question: And the “reduction of ethanol intake, alcohol dependent versus control mice” value (C57BL/6J mice; 12 mg/Kg)?
Answer: Its value is “more effective at reducing ethanol intake in alcohol dependent mice than control mice”.

Question: And the “ethanol intake of alcohol dependent mice compared with control group counterparts” value (C57BL/6J mice; 18 mg/Kg)?
Answer: Its value is “no significant difference in ethanol intake”.

Question: What about the “reduction of ethanol intake, alcohol dependent versus control mice” value (C57BL/6J mice; 18 mg/Kg) of the same compound?
Answer: Its value is “more effective at reducing ethanol intake in alcohol dependent mice than control mice”.

Question: And the ethanol intake (C57BL/6J mice; alcohol dependent mice, 12 mg/Kg s.c., Test Cycle 7 (implied, FIG. 2))?
Answer: Its ethanol intake is “reduced ethanol in alcohol dependent mice”.

Question: What about the “ethanol consumption relative to vehicle” value (C57BL/6J mice; alcohol dependent mice, 12 mg/Kg, p<0.05) of the same compound?
Answer: Its value is “reduced ethanol consumption to a greater extent”.

Question: What about the “ethanol intake of test (ethanol dependent) mice relative to control group levels” value (C57BL/6J mice; at the higher doses) of the same compound?
Answer: The value was “below those for mice in the control group”.

Question: And the “ethanol consumption relative to vehicle” value (C57BL/6J mice; control (CTL) mice, 12 mg/Kg, p<0.05)?
Answer: Its value is “reduced ethanol consumption to a greater extent”.

Question: What about the “ethanol intake relative to vehicle-injected controls” value [2, 4] of the same compound?
Answer: Its value is “reduced ethanol intake”.

Question: And the “reduction of ethanol intake” value [2, 5]?
Answer: Its value is “about 50%”.

Question: And the “ethanol intake compared to controls” value ([2]; Relapse Test phase, each test dose, p<0.05)?
Answer: Its value is “reduce ethanol intake compared to controls”.

Question: What about the 24-hour water intake ([2]; especially at the 9 mg/Kg dose) of the same compound?
Answer: Its 24-hour water intake is “not water intake”.

Question: And the 24-hour food intake [2, 6]?
Answer: Its 24-hour food intake is “transitory reductions in 24-hour food intake”.

Question: And the “reduction of ethanol intake” value [2, 7]?
Answer: The value was “approximately 50%”.

Question: What about the “Dose x Day interaction of reduced ethanol intake” value [2, 8] of the same compound?
Answer: The value was “most robust on the first day”.

Question: What about the “ethanol intake relative to vehicle-injected controls” value [3, 4] of the same compound?
Answer: The value was “reduced ethanol intake”.

Question: What about the “reduction of ethanol intake” value [3, 5] of the same compound?
Answer: The value was “about 50%”.

Question: What about the “ethanol drinking relative to controls” value ([3]; 6 mg/Kg) of the same compound?
Answer: Its value is “significantly reducing ethanol drinking”.

Question: What about the “ethanol drinking relative to controls” value ([3]; 9 mg/Kg) of the same compound?
Answer: Its value is “significantly reducing ethanol drinking”.

Question: And the 24-hour water intake ([3]; especially at the 9 mg/Kg dose)?
Answer: Its 24-hour water intake is “not water intake”.

Question: And the 24-hour food intake [3, 6]?
Answer: The 24-hour food intake was “transitory reductions in 24-hour food intake”.

Question: What about the “reduction of ethanol intake” value [3, 7] of the same compound?
Answer: The value was “approximately 50%”.

Question: And the “Dose x Day interaction of reduced ethanol intake” value [3, 8]?
Answer: The value was “most robust on the first day”.

Question: Which “selective reduction of ethanol drinking” value [1] does the source give for OCCOCCN1CCN(C2=Nc3ccccc3Sc3ccccc32)CC1 [quetiapine] here?
Answer: The value was “do not selectively reduce ethanol drinking”.
